tested on: ABUTH; test: Post-emergence herbicidal action; type: in vivo; details: Table 6, post-emergence (PO), 320 g/ha, assessed after about 3 weeks
Experimental: (§1) Seeds of monocotyledonous and dicotyledonous weed and crop plants are laid out in sandy loam soil in wood-fiber pots, covered with soil and cultivated in a greenhouse under good growth conditions. 2 to 3 weeks after sowing, the test plants are treated at the one-leaf stage. The compounds of the invention, formulated in the form of wettable powders (WP) or as emulsion concentrates (EC), are then sprayed onto the green parts of the plants in the form of an aqueous suspension or emulsion at a water application rate equating to 600 to 800 l/ha, with addition of 0.2% wetting agent. After the test plants have been left to stand in the greenhouse under optimal growth conditions for about 3 weeks, the action of the preparations is assessed visually in comparison to untreated controls (herbicidal action in percent (%): 100% activity=the plants have died, 0% activity=like control plants). […] At the same time, inventive compounds leave Gramineae crops such as barley, wheat, rye, millet/sorghum, corn or rice virtually undamaged when applied post-emergence, even at high active ingredient dosages. In addition, some substances are also harmless to dicotyledonous crops such as soya, cotton, oilseed rape, sugar beet or potatoes. Some of the compounds according to the invention have high selectivity and are therefore suitable for controlling unwanted vegetation in agricultural crops by the post-emergence method. The tables below illustrate, in an exemplary manner, the post-emergence herbicidal action of the compounds according to the invention, the herbicidal activity being stated in percent.

Going from `Nc1cc(-c2ccc3occc3c2)nc(C(=O)OCc2cccc(C(F)(F)F)c2)c1Cl` [Example I-11] to `Nc1cc(-c2ccc3ccoc3c2)nc(C(=O)OCc2ccc(Cl)cc2)c1Cl` [Example I-30], the “Herbicidal action against ABUTH” value falls from 100% to 90%.

Compared with `Nc1c(F)c(-c2ccc3ccoc3c2)nc(C(=O)OCc2ccc(Cl)cc2)c1Cl` [Example I-15], `Nc1cc(-c2ccc3ccsc3c2)nc(C(=O)OCc2c(F)c(F)c(F)c(F)c2F)c1Cl` [Example I-25] is lower in “Herbicidal action against ABUTH” value: 100% for the first, 90% for the second.

tested on: SETVI; test: Post-emergence herbicidal action; type: in vivo; details: Table 6, post-emergence (PO), 320 g/ha, assessed after about 3 weeks
Experimental: as §1

`Nc1cc(-c2ccc3occc3c2)nc(C(=O)OCc2cccc(C(F)(F)F)c2)c1Cl` [Example I-11] and `Nc1cc(-c2ccc3ccoc3c2)nc(C(=O)OCc2ccc(Cl)cc2)c1Cl` [Example I-30] are the same in “Herbicidal action against SETVI” value: 90% for the first, 90% for the second.

Going from `Nc1c(F)c(-c2ccc3ccoc3c2)nc(C(=O)OCc2ccc(Cl)cc2)c1Cl` [Example I-15] to `Nc1cc(-c2ccc3ccsc3c2)nc(C(=O)OCc2c(F)c(F)c(F)c(F)c2F)c1Cl` [Example I-25], the “Herbicidal action against SETVI” value rises from 80% to 100%.

tested on: AMARE; test: Post-emergence herbicidal action; type: in vivo; details: Table 6, post-emergence (PO), 320 g/ha, assessed after about 3 weeks
Experimental: as §1

`Nc1cc(-c2ccc3occc3c2)nc(C(=O)OCc2cccc(C(F)(F)F)c2)c1Cl` [Example I-11] and `Nc1cc(-c2ccc3ccoc3c2)nc(C(=O)OCc2ccc(Cl)cc2)c1Cl` [Example I-30] are the same in “Herbicidal action against AMARE” value: 100% for the first, 100% for the second.

`Nc1c(F)c(-c2ccc3ccoc3c2)nc(C(=O)OCc2ccc(Cl)cc2)c1Cl` [Example I-15] and `Nc1cc(-c2ccc3ccsc3c2)nc(C(=O)OCc2c(F)c(F)c(F)c(F)c2F)c1Cl` [Example I-25] are the same in “Herbicidal action against AMARE” value: 100% for the first, 100% for the second.

tested on: STEME; test: Post-emergence herbicidal action; type: in vivo; details: Table 6, post-emergence (PO), 320 g/ha, assessed after about 3 weeks
Experimental: as §1

`Nc1cc(-c2ccc3occc3c2)nc(C(=O)OCc2cccc(C(F)(F)F)c2)c1Cl` [Example I-11] and `Nc1cc(-c2ccc3ccoc3c2)nc(C(=O)OCc2ccc(Cl)cc2)c1Cl` [Example I-30] are the same in “Herbicidal action against STEME” value: 100% for the first, 100% for the second.

First: Nc1c(F)c(-c2ccc3ccoc3c2)nc(C(=O)OCc2ccc(Cl)cc2)c1Cl [Example I-15]
Second: Nc1cc(-c2ccc3ccsc3c2)nc(C(=O)OCc2c(F)c(F)c(F)c(F)c2F)c1Cl [Example I-25]
The “Herbicidal action against STEME” value of the first is lower: 80% for the first, 100% for the second.

tested on: ABUTH; test: Pre-emergence herbicidal action; type: in vivo; details: Table 3, pre-emergence (PE), 320 g/ha, scored after 3 weeks
From the text: (§2) Seeds of monocotyledonous and dicotyledonous weed plants and crop plants are laid out in sandy loam soil in wood-fiber pots and covered with soil. The compounds of the invention, formulated in the form of wettable powders (WP) or as emulsion concentrates (EC), are then applied to the surface of the covering soil in the form of an aqueous suspension or emulsion at a water application rate equating to 600 to 800 I/ha, with addition of 0.2% wetting agent. After the treatment, the pots are placed in a greenhouse and kept under good growth conditions for the trial plants. The damage to the test plants is scored visually after a test period of 3 weeks by comparison with untreated controls (herbicidal activity in percent (%): 100% activity=the plants have died, 0% activity=like control plants).
(§3) At the same time, inventive compounds leave Gramineae crops such as barley, wheat, rye, millet/sorghum, corn or rice virtually undamaged when applied pre-emergence, even at high active ingredient dosages. In addition, some substances are also harmless to dicotyledonous crops such as soya, cotton, oilseed rape, sugar beet or potatoes. […] The tables below illustrate, in an exemplary manner, the pre-emergence herbicidal action of the compounds according to the invention, the herbicidal activity being stated in percent.

`Nc1cc(-c2ccc3occc3c2)nc(C(=O)OCc2cccc(C(F)(F)F)c2)c1Cl` [Example I-11] and `Nc1cc(-c2ccc3ccoc3c2)nc(C(=O)OCc2ccc(Cl)cc2)c1Cl` [Example I-30] are the same in “Herbicidal action against ABUTH” value: 20% for the first, 20% for the second.

Going from `Nc1c(F)c(-c2ccc3ccoc3c2)nc(C(=O)OCc2ccc(Cl)cc2)c1Cl` [Example I-15] to `Nc1cc(-c2ccc3ccsc3c2)nc(C(=O)OCc2c(F)c(F)c(F)c(F)c2F)c1Cl` [Example I-25], the “Herbicidal action against ABUTH” value falls from 90% to 0%.

tested on: SETVI; test: Pre-emergence herbicidal action; type: in vivo; details: Table 3, pre-emergence (PE), 320 g/ha, scored after 3 weeks
From the text: as §2, §3

Compared with `Nc1cc(-c2ccc3occc3c2)nc(C(=O)OCc2cccc(C(F)(F)F)c2)c1Cl` [Example I-11], `Nc1cc(-c2ccc3ccoc3c2)nc(C(=O)OCc2ccc(Cl)cc2)c1Cl` [Example I-30] is lower in “Herbicidal action against SETVI” value: 100% for the first, 90% for the second.

First: Nc1c(F)c(-c2ccc3ccoc3c2)nc(C(=O)OCc2ccc(Cl)cc2)c1Cl [Example I-15]
Second: Nc1cc(-c2ccc3ccsc3c2)nc(C(=O)OCc2c(F)c(F)c(F)c(F)c2F)c1Cl [Example I-25]
The “Herbicidal action against SETVI” value of the first is lower: 0% for the first, 80% for the second.

tested on: ALOMY; test: Pre-emergence herbicidal action; type: in vivo; details: Table 3, pre-emergence (PE), 320 g/ha, scored after 3 weeks
From the text: as §2, §3

Compared with `Nc1cc(-c2ccc3occc3c2)nc(C(=O)OCc2cccc(C(F)(F)F)c2)c1Cl` [Example I-11], `Nc1cc(-c2ccc3ccoc3c2)nc(C(=O)OCc2ccc(Cl)cc2)c1Cl` [Example I-30] is lower in “Herbicidal action against ALOMY” value: 80% for the first, 40% for the second.

First: Nc1c(F)c(-c2ccc3ccoc3c2)nc(C(=O)OCc2ccc(Cl)cc2)c1Cl [Example I-15]
Second: Nc1cc(-c2ccc3ccsc3c2)nc(C(=O)OCc2c(F)c(F)c(F)c(F)c2F)c1Cl [Example I-25]
The “Herbicidal action against ALOMY” value of the first is lower: 0% for the first, 60% for the second.

tested on: ECHCG; test: Pre-emergence herbicidal action; type: in vivo; details: Table 3, pre-emergence (PE), 320 g/ha, scored after 3 weeks
From the text: as §2, §3

Compared with `Nc1cc(-c2ccc3occc3c2)nc(C(=O)OCc2cccc(C(F)(F)F)c2)c1Cl` [Example I-11], `Nc1cc(-c2ccc3ccoc3c2)nc(C(=O)OCc2ccc(Cl)cc2)c1Cl` [Example I-30] is higher in “Herbicidal action against ECHCG” value: 80% for the first, 100% for the second.

First: Nc1c(F)c(-c2ccc3ccoc3c2)nc(C(=O)OCc2ccc(Cl)cc2)c1Cl [Example I-15]
Second: Nc1cc(-c2ccc3ccsc3c2)nc(C(=O)OCc2c(F)c(F)c(F)c(F)c2F)c1Cl [Example I-25]
The “Herbicidal action against ECHCG” value of the first is lower: 30% for the first, 70% for the second.

tested on: AMARE; test: Pre-emergence herbicidal action; type: in vivo; details: Table 3, pre-emergence (PE), 320 g/ha, scored after 3 weeks
From the text: as §2, §3

`Nc1cc(-c2ccc3occc3c2)nc(C(=O)OCc2cccc(C(F)(F)F)c2)c1Cl` [Example I-11] and `Nc1cc(-c2ccc3ccoc3c2)nc(C(=O)OCc2ccc(Cl)cc2)c1Cl` [Example I-30] are the same in “Herbicidal action against AMARE” value: 100% for the first, 100% for the second.

`Nc1c(F)c(-c2ccc3ccoc3c2)nc(C(=O)OCc2ccc(Cl)cc2)c1Cl` [Example I-15] and `Nc1cc(-c2ccc3ccsc3c2)nc(C(=O)OCc2c(F)c(F)c(F)c(F)c2F)c1Cl` [Example I-25] are the same in “Herbicidal action against AMARE” value: 100% for the first, 100% for the second.
